In patent US7754249B2, “Haircare compositions and methods” (The Boots Company PLC, priority 2004, dated 2010):

System: interleukin-2 (IL-2) production
Assay: IL-2 inhibition assay in pha-stimulated human lymphocytes
Format: cell-based
Conditions: preliminary trial; cultured human lymphocytes stimulated with pha, with or without CsA
Experimental: The potential for the extracts to reduce/prevent hair loss or promote hair growth were assessed by an IL-2 inhibition assay. IL-2 has been associated with inhibition of hair growth and promotion of hair loss.
Human lymphocytes were extracted from blood and cultured using standard techniques. A preliminary trial was carried out to ensure that test cells were able to produce IL-2 when stimulated with phytohaemogluttinin (pha), a known IL-2 promoter, and also for this stimulation to be inhibited using Cyclosporin A (CsA) which is a known inhibitor of IL-2 production.
Following this confirmation of the capability of the cells to produce IL-2, studies using the extracts were carried out using the same methodology, but with the extracts replacing CsA. Results are shown in Table 2 and expressed as % IL-2 inhibition compared to control.
Control=50% denatured ethanol, 50% propylene glycol.
All materials were used at 1 in 1000 dilution.

phytohaemogluttinin [pha]
IL-2: >1000 pg/mL
